Source: ChEMBL document CHEMBL1125764, “Muscarinic receptor binding profile of para-substituted caramiphen analogues” (J Med Chem, 1991)

Tests used:
[1] = target: T1, Muscarinic acetylcholine receptor M2 (Rattus norvegicus, UniProt P10980); assay: Displacement of [3H](-)-quinuclidinyl benzilate(QNB) from muscarinic (M2) receptor in rat heart homogenates; assay type: tissue-based
T1 sequence (P10980 whole entry): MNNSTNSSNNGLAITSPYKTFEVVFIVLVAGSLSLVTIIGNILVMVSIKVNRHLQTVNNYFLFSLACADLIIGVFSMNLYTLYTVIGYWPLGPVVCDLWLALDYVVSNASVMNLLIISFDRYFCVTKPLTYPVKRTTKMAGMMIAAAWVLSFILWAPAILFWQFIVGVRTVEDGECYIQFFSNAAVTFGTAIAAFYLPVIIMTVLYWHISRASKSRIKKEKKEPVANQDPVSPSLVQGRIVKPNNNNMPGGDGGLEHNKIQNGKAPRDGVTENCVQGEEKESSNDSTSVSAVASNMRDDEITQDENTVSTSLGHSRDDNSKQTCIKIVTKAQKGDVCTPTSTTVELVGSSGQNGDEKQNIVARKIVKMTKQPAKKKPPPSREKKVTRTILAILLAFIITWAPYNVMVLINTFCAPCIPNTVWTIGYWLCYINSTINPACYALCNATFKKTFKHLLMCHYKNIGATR

[2] = target: T2, Muscarinic acetylcholine receptor M1 (Rattus norvegicus, UniProt P08482); set-up: species or system Cortex
T2 sequence (P08482 whole entry): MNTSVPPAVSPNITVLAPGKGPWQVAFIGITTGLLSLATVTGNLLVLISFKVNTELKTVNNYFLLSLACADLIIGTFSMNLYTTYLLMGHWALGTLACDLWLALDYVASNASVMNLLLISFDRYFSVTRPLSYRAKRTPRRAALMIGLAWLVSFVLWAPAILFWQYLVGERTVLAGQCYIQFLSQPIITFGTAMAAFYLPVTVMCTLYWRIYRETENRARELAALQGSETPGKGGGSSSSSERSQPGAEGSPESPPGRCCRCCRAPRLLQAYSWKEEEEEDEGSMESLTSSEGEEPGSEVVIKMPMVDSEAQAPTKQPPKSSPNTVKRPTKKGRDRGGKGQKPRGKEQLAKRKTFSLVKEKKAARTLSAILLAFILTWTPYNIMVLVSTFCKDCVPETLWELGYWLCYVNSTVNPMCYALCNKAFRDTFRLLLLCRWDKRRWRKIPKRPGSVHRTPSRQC

SMILES	Ki [1] [nM]	Ki [2] [nM]
CCN(CC)CCOC(=O)C1(c2ccc(N)cc2)CCCC1	116	20
CCN(CC)CCOC(=O)C1(c2ccc(I)cc2)CCCC1	123	2.11
CCN(CC)CCOC(=O)C1(c2ccc(C#N)cc2)CCCC1	213	8.12
CCN(CC)CCOC(=O)C1(C2CCCCC2)CCCCC1 [DICYCLOMINE]	47.3	
CCN(CC)CCOC(=O)C1(c2ccc(-n3cnnn3)cc2)CCCC1	432	14.5
CCN(CC)CCOC(=O)C1(c2ccc(N3CCCC3)cc2)CCCC1	551	151
CCN(CC)CCOC(=O)C1(c2ccccc2)CCCC1	31.7	1.21
CCN(CC)CCOC(=O)C1(c2ccc([N+](=O)[O-])cc2)CCCC1	390	5.52
